Test: Stability under high temperature and high humidity (relative humidity 75%, 40° C.)
Assay type: physicochemical
Experimental: In order to further evaluate the effect of temperature, humidity and light on the quality of the crystalline compounds of the present disclosure, the hydrates were placed in a dessicator with a relative humidity of 75% and at a constant temperature of 40° C. The samples were then collected at 1, 2, 3, and 6 months. Results are shown in Tables 10-14, wherein the “related substances” mean all of the ingredients in a sample except the active material. The content of the related substances in a sample was measure by HPLC in accordance to the Chinese Pharmacopeia (2005 edition, Part II, Appendix V D).

[1] = water content by TGA, 0 month, hydrate
[2] = water content by TGA, 1 month, hydrate
[3] = water content by TGA, 2 months, hydrate
[4] = water content by TGA, 3 months, hydrate
[5] = water content by TGA, 6 months, hydrate

| SMILES | Characters (0 month) | Related substances (%) (0 month, HPLC) | Characters (1 month) | Related substances (%) (1 month, HPLC) | Characters (2 months) | Related substances (%) (2 months, HPLC) | Characters (3 months) | Related substances (%) (3 months, HPLC) | Characters (6 months) | Related substances (%) (6 months, HPLC) | Related substances (%) (by HPLC, 0 month, hydrate) | Related substances (%) (by HPLC, 1 month, hydrate) | Related substances (%) (by HPLC, 2 months, hydrate) | Related substances (%) (by HPLC, 3 months, hydrate) | Related substances (%) (by HPLC, 6 months, hydrate) | TGA (%) [1] | TGA (%) [2] | TGA (%) [3] | TGA (%) [4] | TGA (%) [5] | also measured |
| --- | --- | --- | --- | --- | --- | --- | --- | --- | --- | --- | --- | --- | --- | --- | --- | --- | --- | --- | --- | --- | --- |
| CC(=O)NC[C@H]1CN(c2ccc(N3CCN(c4ccccc4)CC3)c(F)c2)C(=O)O1 [1/12 hydrate, (S)—[N-3-(3′-fluoro-4′-(4″-phenylpiperazinyl))phenyl-2-oxo-5-oxazolidinyl]methyl acetamide 1/12 hydrate] | White powder | 0.94% | White powder | 0.88% | White powder | 0.90% | White powder | 0.92% | White powder | 0.93% |  |  |  |  |  |  |  |  |  |  | TGA (%) (0 month, hydrate): 0.40%; TGA (%) (1 month, hydrate): 0.38%; TGA (%) (2 months, hydrate): 0.39%; TGA (%) (3 months, hydrate): 0.40%; TGA (%) (6 months, hydrate): 0.42% |
| CC(=O)NC[C@H]1CN(c2ccc(N3CCN(c4ccccc4)CC3)c(F)c2)C(=O)O1 [2/7 hydrate, (S)—[N-3-(3′-fluoro-4′-(4″-phenylpiperazinyl))phenyl-2-oxo-5-oxazolidinyl]methyl acetamide 2/7 hydrate] | White powder |  | White powder |  | White powder |  | White powder |  | White powder |  | 0.91% | 0.89% | 0.90% | 0.91% | 0.95% | 1.20% | 1.21% | 1.19% | 1.23% | 1.21% |  |
| CC(=O)NC[C@H]1CN(c2ccc(N3CCN(c4ccccc4)CC3)c(F)c2)C(=O)O1 [3/4 hydrate, (S)—[N-3-(3′-fluoro-4′-(4″-phenylpiperazinyl))phenyl-2-oxo-5-oxazolidinyl]methyl acetamide 3/4 hydrate] | White powder | 0.94% | White powder | 0.88% | White powder | 0.90% | White powder | 0.92% | White powder | 0.93% |  |  |  |  |  |  |  |  |  |  | TGA (%) (0 month, listed as ¾ hydrate, hydrate): 3.10%; TGA (%) (1 month, listed as ¾ hydrate, hydrate): 3.11%; TGA (%) (2 months, listed as ¾ hydrate, hydrate): 3.10%; TGA (%) (3 months, listed as ¾ hydrate, hydrate): 3.09%; TGA (%) (6 months, listed as ¾ hydrate, hydrate): 3.10% |
| CC(=O)NC[C@H]1CN(c2ccc(N3CCN(c4ccccc4)CC3)c(F)c2)C(=O)O1 [½ hydrate, (S)—[N-3-(3′-fluoro-4′-(4″-phenylpiperazinyl))phenyl-2-oxo-5-oxazolidinyl]methyl acetamide 1/2 hydrate] | White powder |  | White powder |  | White powder |  | White powder |  | White powder |  | 0.90% | 0.88% | 0.92% | 0.90% | 0.94% | 2.14% | 2.15% | 2.16% | 2.20% | 2.10% |  |
| CC(=O)NC[C@H]1CN(c2ccc(N3CCN(c4ccccc4)CC3)c(F)c2)C(=O)O1 [⅖ hydrate, (S)—[N-3-(3′-fluoro-4′-(4″-phenylpiperazinyl))phenyl-2-oxo-5-oxazolidinyl]methyl acetamide 2/5 hydrate] | White powder |  | White powder |  | White powder |  | White powder |  | White powder |  | 0.93% | 0.89% | 0.91% | 0.93% | 0.92% | 1.71% | 1.73% | 1.70% | 1.72% | 1.72% |  |

From US8916567B2, “Certain crystalline hydrates, pharmaceutical compositions thereof and methods for preparation and use thereof” (Universal Technology Alliance, Inc., priority 2009, dated 2014)
